The values that follow come from US11814448B2, “Carrier peptide fragment and use thereof” (TOAGOSEI CO., LTD., priority 2020, dated 2023).

FAM = FAM fluorescent dye

The subject of the assay is HeLa cells. Briefly: Evaluation of cell membrane permeability by flow cytometry (FAM fluorescence) in HeLa cells. In kind it is cell-based, human. Particulars: 20-hour incubation; for MFI (mean fluorescent intensity): 10 μM in culture medium, 0.5% DMSO, FL2 fluorescence detector; for introduction of the fluorescent dye (FAM) into the cytoplasm, from the histogram shift (FIG. 1), compared with Example 3 (FAM only): histogram of fluorescent intensity vs cell count. As to the method: The cell membrane permeability of sample 1 and sample 2 was evaluated using HeLa cells (an established cell line derived from human cervical cancer cells) as the eukaryotic cells.
HeLa cells were cultured on DMEM (Dulbecco's modified Eagle's medium (Cat. No. 043-30085, from FUJIFILM Wako Pure Chemical Corporation)) containing 10% FBS (fetal bovine serum), which is a general culture medium.
The HeLa cells attached to the culture plate were washed with PBS, a 0.25% trypsin/EDTA solution was then added, and incubation was carried out for 3 minutes at 37° C. After this incubation, the aforementioned DMEM containing 10% FBS was added and the trypsin was inactivated, and the cells were then sedimented by carrying out centrifugal separation for 5 minutes at 150×g. The supernatant produced by the centrifugal separation was removed, and the aforementioned DMEM containing 10% FBS was added to the sediment (cell pellet) to prepare a cell suspension containing approximately 1×10^5 cells/mL. The cells were seeded (approximately 2×10^5 cells/well) by the addition of 2 mL of this cell suspension to the wells of a commercial 6-well plate ((Iwaki microplate commercially available from AGC techno glass Co., Ltd). The cells were attached to the well bottom by culture for 3 hours at 37° C. under the condition of 5% CO2.
The 2 mM sample solution 1 was then diluted with the aforementioned DMEM containing 10% FBS to prepare a sample solution 1 in which the sample 1 concentration was 20 μM. After the aforementioned 3-hour culture, 1 mL of the culture supernatant was removed from the wells, followed by the addition to the wells of 1 mL of the 20 μM sample solution 1 (i.e., the concentration of sample 1 in the culture medium in the wells was brought to 10 μM and the DMSO concentration was brought to 0.5%). The cells were incubated for 20 hours at 37° C. under the condition of 5% CO2. After this 20-hour incubation, the culture supernatant was removed from the wells and the cells in the wells were washed twice with 1 mL PBS. 200 μL of 0.25% trypsin/EDTA was then added to the wells and incubation was carried out for 3 minutes at 37° C. After this incubation, the trypsin was inactivated by the addition of 400 μL of the aforementioned DMEM containing 10% FBS to the wells, and the cells were subsequently recovered by transferring the cell suspensions in the wells to a tube. The wells were then washed by the further addition of 600 μL PBS to the wells. The cells that had remained in the wells were recovered to the tube by transferring the PBS in the wells to the tube. Centrifugal separation was run on this tube for 5 minutes using conditions of 4° C. and 210×g. After the centrifugal separation, the supernatant was removed, the sediment (cell pellet) was suspended (washed) with 1 mL of PBS, and centrifugal separation was carried out using the same conditions as before. After this procedure has been repeated twice, the supernatant was removed to obtain cells (cell pellet) that had been cultured on a sample 1-containing culture medium.
The cell permeability of sample 1 was analyzed using the resulting cells (cell pellet) and a flow cytometer. An On-Chip Flow Cytometer (On-chip Biotechnologies Co., Ltd.) was used for the flow cytometer.
For this analysis, the cell pellet obtained as described above was suspended in 50 μL PBS. To this suspension was added 50 μL of 2×Sample Buffer for use with the indicated flow cytometer to prepare a cell suspension for submission to analysis.
Gating was performed using this flow cytometer based on forward scatter (FSC) and side scatter (SSC); the gating was set for the cell population that was the target of the analysis; and the fluorescent intensity was measured for the cell population within this gating. The analysis was performed so this cell population reached approximately 10,000. […]

Turning to “FAM-VVRSLVKVVRSLVK-CONH2 ({FAM}-VVRSLVKVVRSLVK-NH2) [Example 1]”, the “MFI (mean fluorescent intensity)” value amounted to 690. For the same substance, the “introduction of the fluorescent dye (FAM) into the cytoplasm, from the histogram shift (FIG. 1), compared with Example 3 (FAM only)” value (10 μM) is recorded as “more efficiently introduced”. Under “10 μM, ratio of MFI values of Table 3”, the “efficiency (cell membrane permeability) compared using the MFI, Example 1 versus Example 2” value is listed as “approximately 65.7 times”.
Consider 5(6)-carboxyfluorescein [Example 3], for which the “MFI (mean fluorescent intensity)” value is given as 5.9.
Regarding “FAM-KKRTLRKNDRKKR-CONH2 ({FAM}-KKRTLRKNDRKKR-NH2) [Example 2]”, the “MFI (mean fluorescent intensity)” value is on record as 10.5. For the same substance, the “introduction of the fluorescent dye (FAM) into the cytoplasm, from the histogram shift (FIG. 1), compared with Example 3 (FAM only)” value (10 μM) is on record as “more efficiently introduced”.
